Biological target: T1, hFAP (recombinant human Fibroblast Activation Protein) (Homo sapiens, UniProt Q12884)
T1 sequence (Q12884 26-760 limits assumed): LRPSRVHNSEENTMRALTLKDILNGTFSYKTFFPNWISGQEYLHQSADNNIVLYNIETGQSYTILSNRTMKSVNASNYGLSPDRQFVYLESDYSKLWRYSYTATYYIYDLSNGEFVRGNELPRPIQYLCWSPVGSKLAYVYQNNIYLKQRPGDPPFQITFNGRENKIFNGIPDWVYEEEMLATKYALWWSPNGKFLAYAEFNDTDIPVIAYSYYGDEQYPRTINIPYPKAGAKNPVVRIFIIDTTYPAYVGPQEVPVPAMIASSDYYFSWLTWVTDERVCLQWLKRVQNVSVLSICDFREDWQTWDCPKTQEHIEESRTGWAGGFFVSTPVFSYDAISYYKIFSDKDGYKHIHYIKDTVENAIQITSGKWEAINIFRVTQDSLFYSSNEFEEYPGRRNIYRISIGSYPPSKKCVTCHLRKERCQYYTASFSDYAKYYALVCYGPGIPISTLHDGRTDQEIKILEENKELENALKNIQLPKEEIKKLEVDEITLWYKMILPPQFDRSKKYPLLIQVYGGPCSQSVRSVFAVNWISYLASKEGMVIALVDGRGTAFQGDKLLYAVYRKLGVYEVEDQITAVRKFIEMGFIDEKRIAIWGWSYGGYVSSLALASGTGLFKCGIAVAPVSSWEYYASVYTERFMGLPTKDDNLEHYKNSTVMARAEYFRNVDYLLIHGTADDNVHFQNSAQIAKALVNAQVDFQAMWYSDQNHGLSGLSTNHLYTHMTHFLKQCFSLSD
Test: biochemical

N#C[C@@H]1CC(F)(F)CN1C(=O)CNC(=O)c1ccnc2c(NC(=O)CCC(=O)NCCNC(=O)CCC(C(=O)O)N3CCN(CC(=O)O)CCN(CC(=O)O)CCN(CC(=O)O)CC3)cccc12 (stereo partly shown) [compound 1, OncoFAP-DOTAGA]
IC50: 0.399 nM

— publication doi:10.1101/2022.02.21.481260v1 (biorxiv, 2022)
